Values after ≈ are worked out from the molar mass of the structure shown. Where two headings read alike, the source gives them in different places. Bounds are passed on as bounds.

Results on 31 molecules are retold here after paper PMC8379015, “Resistance of Mycobacterium tuberculosis to indole 4-carboxamides occurs through alterations in drug metabolism and tryptophan biosynthesis” (Cell Chemical Biology, 2021).

One data set relates to M. tuberculosis H37Rv. The experiment in a line: microbe, parasite or virus in culture. It counts as cell-based. Conditions: Mycobacterium tuberculosis.
A further data set relates to TrpE. Further details: method as in Negatu et al., 2019. Conditions: ref Negatu et al., 2019; read-out: IC50 TrpE (allosteric inhibition); cited from earlier work.
For a further data set, the target named is T1, TrpAB WT (Mycobacterium tuberculosis, UniProt P9WFX9+P9WFY1).
T1 construct: His6 (N); made in house; host or cells: E. coli BL21(DE3)
It counts as biochemical.

A further data set has as its target T2, TrpAB β reaction (Mycobacterium tuberculosis, UniProt P9WFX9+P9WFY1).
T2 construct: His6 (N); made in house; host or cells: E. coli BL21(DE3)
Put plainly: biochemical. The class given is biochemical.

The subject of a further data set is M. smegmatis mc2155. The experiment in a line: microbe, parasite or virus in culture. The class given is cell-based, Mycobacterium smegmatis. Conditions: for MIC: Mycolicibacterium smegmatis, MC2155, read-out: MIC vs M. smegmatis mc2155.
Data set [1] deals with intracellular Mtb H37Rv in J774 macrophages. It counts as cell-based, Mycobacterium tuberculosis.
The target of a further data set is T3, TrpE WT (Mycobacterium tuberculosis, UniProt P9WFX3).
T3 construct: His6 (N); made in house; host or cells: E. coli BL21(DE3)
T3 sequence (P9WFX3 1-516): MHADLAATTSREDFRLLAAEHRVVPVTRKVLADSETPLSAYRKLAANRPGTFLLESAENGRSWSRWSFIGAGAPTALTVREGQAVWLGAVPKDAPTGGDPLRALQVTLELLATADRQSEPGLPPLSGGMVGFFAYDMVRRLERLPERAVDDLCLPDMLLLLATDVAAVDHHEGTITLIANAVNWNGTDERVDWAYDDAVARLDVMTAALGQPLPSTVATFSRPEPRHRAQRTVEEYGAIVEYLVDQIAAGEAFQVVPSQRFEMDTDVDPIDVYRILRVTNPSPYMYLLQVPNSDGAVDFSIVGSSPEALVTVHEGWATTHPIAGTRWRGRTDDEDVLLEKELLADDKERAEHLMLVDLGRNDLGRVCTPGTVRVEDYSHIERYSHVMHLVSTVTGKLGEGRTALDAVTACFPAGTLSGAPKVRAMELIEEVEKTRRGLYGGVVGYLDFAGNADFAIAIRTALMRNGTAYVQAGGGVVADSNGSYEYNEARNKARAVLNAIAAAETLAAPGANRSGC
The class given is biochemical.

A further data set has as its system J774 macrophages. Conditions: 24 hrs, CellTiter-Glo. Background: In ATP-based viability assays light output follows the ATP content of the culture.
A further data set has as its system Mtb. It counts as cell-based, Mycobacterium tuberculosis.
A further data set deals with T4, TrpAB α reaction (Mycobacterium tuberculosis, UniProt P9WFX9+P9WFY1).
T4 construct: His6 (N); made in house; host or cells: E. coli BL21(DE3)
The experiment in a line: biochemical.

Another data set concerns M. bovis BCG. The experiment in a line: microbe, parasite or virus in culture. The class given is cell-based, Mycobacterium bovis BCG.

T2 sequence (P9WFX9 whole entry): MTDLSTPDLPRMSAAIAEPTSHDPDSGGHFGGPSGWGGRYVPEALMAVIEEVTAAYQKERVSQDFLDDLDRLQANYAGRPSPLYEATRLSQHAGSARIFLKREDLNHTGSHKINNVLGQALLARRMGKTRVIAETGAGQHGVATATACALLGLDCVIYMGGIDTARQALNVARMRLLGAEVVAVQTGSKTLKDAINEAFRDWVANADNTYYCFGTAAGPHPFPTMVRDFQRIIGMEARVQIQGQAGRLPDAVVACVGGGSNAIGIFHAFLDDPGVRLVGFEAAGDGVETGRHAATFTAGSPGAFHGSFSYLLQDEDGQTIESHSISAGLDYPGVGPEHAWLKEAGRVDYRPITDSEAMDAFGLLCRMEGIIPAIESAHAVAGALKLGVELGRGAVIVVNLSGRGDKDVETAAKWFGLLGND
T2 sequence (P9WFY1 whole entry): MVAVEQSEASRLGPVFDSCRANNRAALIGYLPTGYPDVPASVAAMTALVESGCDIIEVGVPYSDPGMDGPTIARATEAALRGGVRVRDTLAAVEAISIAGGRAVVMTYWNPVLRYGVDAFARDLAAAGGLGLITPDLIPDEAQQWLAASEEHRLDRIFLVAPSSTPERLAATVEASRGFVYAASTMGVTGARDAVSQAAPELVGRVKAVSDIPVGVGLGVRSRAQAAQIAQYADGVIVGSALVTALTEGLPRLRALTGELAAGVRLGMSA
T4 sequence (P9WFX9 whole entry): as the sequence (P9WFX9 whole entry) above
T4 sequence (P9WFY1 whole entry): as the sequence (P9WFY1 whole entry) above
T1 sequence (P9WFX9 whole entry): as the sequence (P9WFX9 whole entry) above
T1 sequence (P9WFY1 whole entry): as the sequence (P9WFY1 whole entry) above

With `Nc1cccc2[nH]cc(C[C@H](N)C(=O)O)c12` [4-aTrp, 4-amino-L-tryptophan], the MIC in the data set on M. tuberculosis H37Rv (read-out: MIC against Mtb) was over 100 µM.

With `N[C@@H](Cc1c[nH]c2ccc(F)cc12)C(=O)O` [5-fluorotryptophan], the IC50 (as a rule, the concentration needed to halve the response being measured) in the data set on TrpE was 4 µM.

`O=C(Nc1cccc2cc[nH]c12)c1ccc(OCC(F)(F)F)nc1` [C8, N-(1H-indol-7-yl)-6-(2,2,2-trifluoroethoxy)nicotinamide] yielded an MIC in the data set on M. tuberculosis H37Rv of 9.4 µM (≈ 3.15 µg/mL).

With `O=C(Nc1ccc2[nH]ccc2c1)c1ccc(OCC(F)(F)F)nc1` [C6, N-(1H-indol-5-yl)-6-(2,2,2-trifluoroethoxy)nicotinamide], the MIC in the data set with M. tuberculosis H37Rv came out at 50 µM (≈ 16.8 µg/mL).

In the case of `CN(CC(F)(F)F)c1ccc(C(=O)Nc2cccc3[nH]ccc23)cn1` [C20, N-(1H-indol-4-yl)-6-(methyl(2,2,2-trifluoroethyl)amino)nicotinamide], in the data set on M. tuberculosis H37Rv (read-out: MIC), the MIC was 4.7 µM (≈ 1.64 µg/mL).

With `Cn1ccc2c(NC(=O)c3ccc(OCC(F)(F)F)nc3)cccc21` [C9, N-(1-methyl-1H-indol-4-yl)-6-(2,2,2-trifluoroethoxy)nicotinamide], the MIC in the data set with M. tuberculosis H37Rv is 50 µM (≈ 17.5 µg/mL).

As to `NNC(=O)c1ccncc1` [INH, isoniazid, reference compound], the MIC with M. tuberculosis H37Rv (read-out: MIC) was determined as 0.16 µM (≈ 0.0219 µg/mL).

With `O=C(O)COc1ccccc1` [C2-COOH, 2-phenoxyacetic acid], the MIC against M. tuberculosis H37Rv is over 100 µM.

In turn, `O=C(O)c1ccc(OCC(F)(F)F)nc1` [C1-COOH, 6-(2,2,2-trifluoroethoxy)nicotinic acid] registered an MIC against M. tuberculosis H37Rv of 50 µM (≈ 11.1 µg/mL).

Consider `O=C(Nc1ccnc2[nH]ccc12)c1ccc(OCC(F)(F)F)cn1` [C15, N-(1H-pyrrolo[2,3-b]pyridin-4-yl)-5-(2,2,2-trifluoroethoxy)picolinamide], for which, in the data set with M. tuberculosis H37Rv (read-out: MIC), the MIC amounted to 50 µM (≈ 16.8 µg/mL).

Take `O=C(COCC1CC1)Nc1cccc2[nH]ccc12` [C18, 2-(cyclopropylmethoxy)-N-(1H-indol-4-yl)acetamide]: in the data set with M. tuberculosis H37Rv (read-out: MIC), the MIC came out at 3.13 µM (≈ 0.765 µg/mL).

For the molecule `O=P(O)(O)OC[C@@H](O)[C@H](O)c1c[nH]c2ccccc12` [IGP, indole-3-glycerol phosphate], the Michaelis constant (Km) (in general, the concentration of substrate that gives half-maximal velocity) on TrpAB WT (read-out: apparent KM IGP) was 76.9 ± 1.1 µM.

As for `N[C@@H](CO)C(=O)O` [L-Ser, L-serine], the Michaelis-Menten constant (Km) came to 2900 ± 300 µM on TrpAB β reaction (read-out: KM L-Ser of TrpAB β-half reaction) and 550 ± 230 µM at TrpAB WT (read-out: apparent KM L-Ser).

Turning to “N-(1H-indol-4-yl)-6-(2,2,2-trifluoroethoxy)nicotinamide [C1]”, the “MIC vs M. smegmatis mc2155” value in the data set on M. smegmatis mc2155 is over 100 µM. For the same molecule, the “reduction in intracellular Mtb titer” value in [1] was determined as 1.5 log. On TrpE WT, this molecule had a concentration for half-maximal inhibition (IC50) of 242 ± 53 µM. Further, in the data set on J774 macrophages, the “toxicity to J774 macrophages” value is “not toxic”.

On to `O=C(Nc1cccc2[nH]ccc12)[C@H]1C[C@@H](Oc2ccccc2)C1` [C19, (1s,3s)-N-(1H-indol-4-yl)-3-phenoxycyclobutane-1-carboxamide], for which the MIC in the data set on M. tuberculosis H37Rv (read-out: MIC) was 3.13 µM (≈ 0.959 µg/mL).

As for `Nc1cccc2[nH]ccc12` [4-AI, 4-aminoindole, reference compound], the MIC against M. tuberculosis H37Rv and in the data set on M. tuberculosis H37Rv (read-out: MIC against Mtb) was 4.68 µM (≈ 0.619 µg/mL) in each case. Also, the “increase of MIC on supplementation” value in the data set on Mtb is given as 4- to 16 fold. Moreover, the figures for the half-inhibitory concentration (IC50) on TrpAB α reaction and against TrpAB β reaction were 631 ± 174 µM and 649.4 ± 2.5 µM, respectively.

Take `O=C(COc1ccccc1)Nc1cccc2[nH]ccc12` [C2, N-(1H-indol-4-yl)-2-phenoxyacetamide]: in the data set on M. smegmatis mc2155, the MIC is over 100 µM.

For the molecule `O=C(O)c1ccc(OCC(F)(F)F)cn1` [C4-COOH, 5-(2,2,2-trifluoroethoxy)picolinic acid], the MIC in the data set on M. tuberculosis H37Rv was over 100 µM.

With `O=C(Nc1ccc(OCC(F)(F)F)nc1)c1cccc2[nH]ccc12` [C11, N-(6-(2,2,2-trifluoroethoxy)pyridine-3-yl)-1H-indole-4-carboxamide], the MIC in the data set on M. tuberculosis H37Rv is 50 µM (≈ 16.8 µg/mL).

Turning to `O=C(Nc1ccc2cc[nH]c2c1)c1ccc(OCC(F)(F)F)nc1` [C7, N-(1H-indol-6-yl)-6-(2,2,2-trifluoroethoxy)nicotinamide], the MIC with M. tuberculosis H37Rv is 50 µM (≈ 16.8 µg/mL).

Turning to `O=C(Nc1cccc2[nH]ccc12)c1ccc(OCC(F)(F)F)nn1` [C16, N-(1H-indol-4-yl)-6-(2,2,2-trifluoroethoxy)pyridazine-3-carboxamide], the MIC in the data set with M. tuberculosis H37Rv (read-out: MIC) was 2.3 µM (≈ 0.773 µg/mL).

Take `Cc1ccc(C(=O)Nc2cccc3[nH]ccc23)o1` [C21, N-(1H-indol-4-yl)-5-methylfuran-2-carboxamide]: the MIC with M. tuberculosis H37Rv (read-out: MIC) was found to be 6.25 µM (≈ 1.5 µg/mL).

Consider `O=C(Nc1cccc2[nH]ccc12)C1CCCCC1` [C3, N-(1H-indol-4-yl)cyclohexanecarboxamide], for which the MIC is 12.5 µM (≈ 3.03 µg/mL) in the data set with M. tuberculosis H37Rv (read-out: MIC); over 100 µM with M. bovis BCG (Mycobacterium tuberculosis variant bovis BCG, BCG, read-out: MIC vs M. bovis BCG); over 100 µM in the data set with M. smegmatis mc2155. The “MIC vs M. bovis BCG” value in the data set with M. bovis BCG is 50 µM (≈ 12.1 µg/mL).

Regarding `O=C(Nc1cccc2c1CCN2)c1ccc(OCC(F)(F)F)nc1` [C12, N-(indolin-4-yl)-6-(2,2,2-trifluoroethoxy)nicotinamide], the MIC against M. tuberculosis H37Rv was 50 µM (≈ 16.9 µg/mL).

As to `CNS(=O)(=O)c1ccc2c(c1)CCN2C(=O)c1ccc(C)s1` [C5, reference compound], in the data set on M. tuberculosis H37Rv (read-out: MIC), the MIC was 0.39 µM (≈ 0.131 µg/mL). Also, in the data set on Mtb, the “potency with exogenous indole or L-Trp” value is reported as “significantly attenuated”. Besides, the IC50 at TrpAB α reaction is 0.1 ± 0.06 µM; on TrpAB β reaction, 0.37 ± 0.07 µM.

Regarding `CN(C(=O)c1ccc(OCC(F)(F)F)nc1)c1cccc2[nH]ccc12` [C13, N-(1H-indol-4-yl)-N-methyl-6-(2,2,2-trifluoroethoxy)nicotinamide], the MIC with M. tuberculosis H37Rv (read-out: MIC) is 25 µM (≈ 8.73 µg/mL).

As for `O=C(Nc1cccc2[nH]cnc12)c1ccc(OCC(F)(F)F)cn1` [C14, N-(1H-benzo[d]imidazol-4-yl)-5-(2,2,2-trifluoroethoxy)picolinamide], the MIC with M. tuberculosis H37Rv (read-out: MIC) was found to be 50 µM (≈ 16.8 µg/mL).

As for `Cc1ccc(OCC(=O)Nc2cccc3[nH]ccc23)cc1` [C17, N-(1H-indol-4-yl)-2-(p-tolyloxy)acetamide], the MIC in the data set with M. tuberculosis H37Rv (read-out: MIC) is 1.56 µM (≈ 0.437 µg/mL).

As to `O=C(O)C1CCCCC1` [C3-COOH, cyclohexanecarboxylic acid], the MIC against M. tuberculosis H37Rv is over 100 µM.

Take `O=C(Nc1cccc2[nH]ccc12)c1ccc(OCC(F)(F)F)cn1` [C4, N-(1H-indol-4-yl)-5-(2,2,2-trifluoroethoxy)picolinamide]: in the data set with M. smegmatis mc2155, the MIC was over 100 µM.

`FC(F)(F)COc1ccc(CNc2cccc3[nH]ccc23)cn1` [C10, N-((6-(2,2,2-trifluoroethoxy)pyridin-3-yl)methyl)-1H-indol-4-amine]: the MIC against M. tuberculosis H37Rv is 50 µM (≈ 16.1 µg/mL).
